Measured values taken from ChEMBL document CHEMBL3137667, “[Drug-induced liver injury; fourteenth updated edition of the bibliographic database of liver injuries and related drugs]” (Gastroenterol Clin Biol, 2004).

Legend:
[1] = human
[2] = human; remark: listed apart in the source
[3] = human; remark: listed apart in the source
[4] = human; remark: listed apart in the source
[5] = human; remark: listed apart in the source
[6] = human, serum
[7] = human, serum, 4383 h
[8] = human; remark: listed apart in the source
[9] = human; remark: listed apart in the source
[10] = Highest frequency of moderate liver toxicity observed during clinical trials, expressed as a percentage. [column '% BIOL' in source]; details: human
[11] = human, serum; remark: listed apart in the source
[12] = human; remark: listed apart in the source
[13] = Highest frequency of acute liver toxicity observed during clinical trials, expressed as a percentage. [column '% AIGUE' in source]; details: human
[14] = human; remark: listed apart in the source
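Throughout, for Hepatotoxicity (association with vascular disease): count of indexed literature references reporting vascular liver injury in humans, e.g. peliosis hepatitis, hepatic veno-occlusive disease or Budd-Chiari syndrome.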
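Throughout, for Hepatotoxicity (benign tumour): value is a count of indexed literature references citing a benign tumour confirmed by histopathology.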
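Throughout, for Hepatotoxicity (choleostasis): human cholestatic liver injury, shown by histopathology or by peak ALT or AST elevation over alkaline phosphatase ratio below 2, value counts indexed literature reports.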
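Throughout, for Hepatotoxicity (chronic liver disease): chronic liver injury confirmed by histopathology or persistently raised serum aminotransferase activity beyond 6 months, value given as the count of indexed literature references.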
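Throughout, for Hepatotoxicity (cirrhosis): value is a count of indexed literature references reporting cirrhosis confirmed by histopathology.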
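Throughout, for Hepatotoxicity (cytolytic): human cytolytic liver injury, shown by histopathology or by a ratio above 5 of peak ALT or AST elevation to alkaline phosphatase elevation, value counts indexed references.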
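Throughout, for Hepatotoxicity (granulomatous hepatitis): value is a count of indexed literature references reporting granulomatous liver disease confirmed by histopathology.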
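Throughout, for Hepatotoxicity (malignant tumour): malignant tumour confirmed by histopathology, value gives the count of indexed literature references reporting it.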
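Throughout, for Hepatotoxicity (severe hepatitis): human clinical data: severe hepatitis, meaning potentially life-threatening liver failure or clinically observed cases, the value counts how many indexed literature references report it.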
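Throughout, for Hepatotoxicity (steatosis): steatosis confirmed by histopathology, value is the count of indexed references.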

Structure (SMILES) | Hepatotoxicity (benign tumour) [1] | Hepatotoxicity (steatosis) [2] | Hepatotoxicity (granulomatous hepatitis) ([3]; Liver) | Hepatotoxicity (choleostasis) ([4]; Liver) | Hepatotoxicity (association with vascular disease) [5] | Hepatotoxicity (acute) [6] | Hepatotoxicity (chronic liver disease) [7] | Hepatotoxicity (malignant tumour) [8] | Hepatotoxicity (cirrhosis) [9] | Hepatotoxicity (moderate) ([10]; Liver) | Hepatotoxicity (moderate) [11] | Hepatotoxicity (severe hepatitis) ([12]; Liver) | Hepatotoxicity (acute) ([13]; Liver) | Hepatotoxicity (cytolytic) ([14]; Liver) | Hepatotoxicity (granulomatous hepatitis) [3] | Hepatotoxicity (choleostasis) [4] | Hepatotoxicity (moderate) [10] | Hepatotoxicity (severe hepatitis) [12] | Hepatotoxicity (acute) [13] | Hepatotoxicity (cytolytic) [14]
CSCC[C@H](N)C(=O)O [METHIONINE] | 0 | 0 | 0 | 0 | 0 | 2 | 0 | 0 | 0 | 0% | 1 | 0 | 0% | 1 | – | – | – | – | – | –
NS(=O)(=O)c1cc2c(cc1Cl)NC(CC1CCCC1)NS2(=O)=O (stereo unspecified) [CYCLOPENTHIAZIDE] | 0 | 0 | – | – | 0 | 1 | 0 | 0 | 0 | – | 1 | – | – | – | 0 | 0 | 0% | 0 | 0% | 0
CC(N)C12CC3CC(CC(C3)C1)C2 (stereo unspecified) [RIMANTADINE] | 0 | 0 | – | – | 0 | 0 | 0 | 0 | 0 | – | 1 | – | – | – | 0 | 0 | 1.8% | 0 | 0% | 0
COC1=C(C(=O)O)N2C(=O)[C@@H](NC(=O)[C@H](N)C3=CCC=CC3)[C@H]2SC1 [CEFROXADINE] | 0 | 0 | – | – | 0 | 0 | 0 | 0 | 0 | – | 1 | – | – | – | 0 | 0 | 2% | 0 | 0% | 0
Cc1cccc(Nc2cc(Cl)nc(SCC(=O)NCCO)n2)c1C [PIRINIXIL] | 0 | 0 | – | – | 0 | 0 | 0 | 0 | 0 | – | 1 | – | – | – | 0 | 0 | 0% | 0 | 0% | 0
O=C(CCCN1CCN(c2ccc(F)cc2)CC1)NC1c2ccccc2CSc2ccccc21 (stereo unspecified) [MONATEPIL] | 0 | 0 | – | – | 0 | 0 | 0 | 0 | 0 | – | 1 | – | – | – | 0 | 0 | 4.5% | 0 | 0% | 0
Cc1cccc(Nc2ccncc2S(=O)(=O)NC(=O)NC(C)C)c1 [TORSEMIDE] | 0 | 0 | – | – | 0 | 0 | 0 | 0 | 0 | – | 1 | – | – | – | 0 | 0 | 0.6% | 0 | 0% | 0
CCCN1C[C@H](CSC)C[C@@H]2c3cccc4[nH]cc(c34)C[C@H]21 [PERGOLIDE] | 0 | 0 | – | – | 0 | 0 | 0 | 0 | 0 | – | 3 | – | – | – | 0 | 0 | 1.9% | 0 | 0% | 0
CC=CC1=C(C(=O)O)N2C(=O)[C@@H](NC(=O)[C@H](N)c3ccc(O)cc3)[C@H]2SC1 [CEFPROZIL] | 0 | 0 | – | – | 0 | 1 | 0 | 0 | 0 | – | 42 | – | – | – | 0 | 1 | 25% | 0 | 0.6% | 0
